Experimental data published in ChEMBL document CHEMBL3085659, “Synthesis, antiproliferative and apoptosis-inducing activity of thiazolo[5,4-d]pyrimidines” (Eur J Med Chem, 2013).

Key:
Assay type in all cases: functional
[1] = test system: PC-3; experiment: Antiproliferative activity against human PC3 cells assessed as growth inhibition at 10 uM after 48 hrs by SRB assay; details: PC-3, 48 h, read-out: GI
[2] = Antiproliferative activity against human MIAPaCa2 cells assessed as growth inhibition at 10 uM after 48 hrs by SRB assay; details: MIA PaCa-2, 48 h, read-out: GI
[3] = Antiproliferative activity against human NCI-H322 cells assessed as growth inhibition at 10 uM after 48 hrs by SRB assay; details: NCI-H322, 48 h, read-out: GI
[4] = test system: A-431; experiment: Antiproliferative activity against human A431 cells assessed as growth inhibition at 10 uM after 48 hrs by SRB assay; details: A-431, 48 h, read-out: GI
[5] = test system: T98G; experiment: Antiproliferative activity against human T98G cells assessed as growth inhibition at 10 uM after 48 hrs by SRB assay; details: read-out: GI
[6] = test system: HL-60; experiment: Antiproliferative activity against human HL60 cells assessed as growth inhibition at 10 uM after 48 hrs by SRB assay; details: HL-60, 48 h, read-out: GI
[7] = test system: A549; experiment: Antiproliferative activity against human A549 cells assessed as growth inhibition at 10 uM after 48 hrs by SRB assay; details: A549, 48 h, read-out: GI
[8] = test system: T47D; experiment: Antiproliferative activity against human T47D cells assessed as growth inhibition at 10 uM after 48 hrs by SRB assay; details: read-out: GI

Compound | inhibition of growth at 10 µM [1] [%] | inhibition of growth at 10 µM [2] [%] | inhibition of growth at 10 µM [3] [%] | inhibition of growth at 10 µM [4] [%] | inhibition of growth at 10 µM [5] [%] | inhibition of growth at 10 µM [6] [%] | inhibition of growth at 10 µM [7] [%] | inhibition of growth at 10 µM [8] [%]
COc1ccc(Nc2nc3c(Cl)ncnc3s2)cc1 | 26 | 0 | 25 | 9 | 4 | 31 | 0 | 19
CCN1CCN(c2ncnc3sc(Nc4ccccc4)nc23)CC1 | 19 | 9 | 27 | 0 | 19 | 24 | 25 | 29
CN(C)c1ncnc2sc(Nc3ccc(Cl)cc3)nc12 | 28 | 28 | 6 | 0 | 23 | 39 | 23 | 21
CN1CCN(c2ncnc3sc(Nc4ccc(Cl)cc4)nc23)CC1 | 18 | 5 | 10 | 21 | 20 | 20 | 18 | 21
c1ccc(Nc2nc3c(N4CCNCC4)ncnc3s2)cc1 | 35 | 30 | 35 | 18 | 12 | 39 | 19 | 21
O=C(Nc1nc2c(Cl)ncnc2s1)c1ccccc1 | 21 | 15 | 37 | 0 | 23 | 21 | 29 | 32
c1ccc(Nc2nc3c(N4CCC(N5CCCCC5)CC4)ncnc3s2)cc1 | 34 | 23 | 30 | 10 | 13 | 39 | 19 | 21
CCN(CC)c1ncnc2sc(Nc3ccccc3)nc12 | 19 | 9 | 39 | 12 | 49 | 31 | 48 | 27
